One experiment relates to Pluteus. The experiment in a line: Decrease in mobility of Pluteus larvae at 10 ug/ml. In kind it is functional, organism-based.
The subject of experiment [1] is Echinoidea. Put plainly: Effect on fertilized sea urchin egg division assessed as delaying of metamorphosis at 5 ug/ml. It is filed as functional.
Experiment [2] concerns Echinoidea. The experiment in a line: Inhibition of sea urchin egg division at 5 ug/ml. In kind it is functional.
Experiment [3] relates to Echinoidea. The experiment in a line: Inhibition of sea urchin egg division at 20 ug/ml. In kind it is functional.

The source made the active and inactive calls. The calls are words filed in the database; no cut-off is given here.

This note sets out measurements from ChEMBL document CHEMBL1147358, “A New Brominated Indole-3-carbaldehyde from the Marine Bryozoan Zoobotryon verticillatum” (J Nat Prod, 1993).

Regarding `Cn1c(Br)c(C=O)c2cc(Br)c(Br)cc21`, the outcome in the experiment on Pluteus and with Echinoidea [1] was Active.
Take `Cn1c(Br)c(C[N+](C)(C)[O-])c2cc(Br)c(Br)cc21`: the outcome with Echinoidea [2] and in the experiment on Echinoidea [3] was Active.
Regarding `CN(C)Cc1c(Br)n(C)c2cc(Br)c(Br)cc12`, the result in the experiment on Echinoidea [2] and in the experiment on Echinoidea [3] was Active.
